From ChEMBL document CHEMBL1148796 (J Med Chem, 2007)

What was measured:
[1] = tested on: Human immunodeficiency virus 1; assay: Antiviral activity against HIV1 RT K103N-Y181C mutant in MT4 cells by MTT assay; type: functional; conditions: Human immunodeficiency virus 1, MT4; read-out: ED50 (the source's name)
[2] = Selectivity index, ratio of TC50 for C8166 cells to ED50 for HIV1; type: functional
[3] = tested on: Human immunodeficiency virus 1; assay: Antiretroviral activity against wild type HIV1 in MT4 cells by MTT assay; type: functional; conditions: Human immunodeficiency virus 1, MT4; read-out: ED50 (the source's name)
[4] = Cytotoxicity against mock-infected C8166 cells by MTT assay; type: cell-based; conditions: human, read-out: TC50 (the source's name)
[5] = tested on: Human immunodeficiency virus 1; assay: Antiviral activity against HIV1 3B in MT4 cells by MTT assay; type: functional; conditions: Human immunodeficiency virus 1, 3B, read-out: ED50 (the source's name)
[6] = tested on: Human immunodeficiency virus 1; assay: Antiviral activity against HIV1 RT Y181C mutant in MT4 cells by MTT assay; type: functional; conditions: Human immunodeficiency virus 1, MT4; read-out: ED50 (the source's name)
[7] = Cytotoxicity against MT4 cells by MTT assay; type: cell-based; conditions: human, read-out: TC50 (the source's name)
[8] = tested on: Human immunodeficiency virus 1; assay: Antiretroviral activity against HIV1 wild type in C8166 cells by MTT assay; type: functional; conditions: Human immunodeficiency virus 1, C8166; read-out: ED50 (the source's name)
[9] = Selectivity index, ratio of TC50 for MT4 cells to ED50 for HIV1; type: functional
[10] = tested on: Human immunodeficiency virus type 1 reverse transcriptase (Human immunodeficiency virus 1), Q72547 [K103N]
Description: Inhibition of HIV1 RT K103N mutant

[11] = Selectivity index, ratio of TC50 for lymphocytes to ED50 for HIV1 3B; type: functional, Homo sapiens
[12] = Selectivity index, ratio of TC50 for lymphocytes to ED50 for HIV1 RT 112 mutant; type: functional
[13] = tested on: Human immunodeficiency virus 1; assay: Antiretroviral activity against HIV1 3BBa-L in macrophages assessed as reduction of p24 antigen production; type: functional; conditions: Human immunodeficiency virus 1, 3BBa-L; read-out: ED50 (the source's name)
[14] = tested on: Human immunodeficiency virus 1; assay: Antiviral activity against HIV1 RT 112 mutant in lymphocytes assessed as reduction of p24 antigen production; type: functional; conditions: read-out: ED50 (the source's name)
[15] = Selectivity index, ratio of TC50 for macrophages to ED50 for HIV1 3BBa-L; type: functional
[16] = biological target: Human immunodeficiency virus type 1 reverse transcriptase (Human immunodeficiency virus 1) (UniProt Q72547)
Description: Inhibition of wild type HIV1 RT

[17] = Cytotoxicity against macrophages; type: cell-based, Macrophage; conditions: human, read-out: TC50 (the source's name)
[18] = tested on: Human immunodeficiency virus 1; assay: Antiviral activity against HIV1 RT AB1 mutant in lymphocytes assessed as reduction of p24 antigen production; type: functional; conditions: read-out: ED50 (the source's name)
[19] = tested on: Human immunodeficiency virus 1; assay: Antiviral activity against wild type HIV1 3B in lymphocytes assessed as reduction of p24 antigen production; type: functional; conditions: Human immunodeficiency virus 1, 3B; read-out: ED50 (the source's name)
[20] = tested on: Human immunodeficiency virus type 1 reverse transcriptase (Human immunodeficiency virus 1), Q72547 [Y181I]
[21] = tested on: Human immunodeficiency virus type 1 reverse transcriptase (Human immunodeficiency virus 1), Q72547 [L100I]
Description: Inhibition of HIV1 RT L100I mutant

[22] = Cytotoxicity against lymphocytes; type: cell-based, Lymphocyte; conditions: human, read-out: TC50 (the source's name)
[23] = Selectivity index, ratio of TC50 for lymphocytes to ED50 for HIV1 RT AB1 mutant; type: functional

SMILES	EC50 [1] [nM]	Selectivity index [2]	EC50 [3] [nM]	CC50 [4] [nM]	EC50 [5] [nM]	EC50 [6] [nM]	CC50 [7] [nM]	EC50 [8] [nM]	Selectivity index [9]	also measured
Cc1cc(C)cc(S(=O)(=O)c2c(C(N)=O)[nH]c3c(F)cc(F)cc23)c1	> 20000	>800	7	> 20000	7	1500	> 20000	25	>2857	–
Cc1cc(C)cc(S(=O)(=O)c2c(C(N)=O)[nH]c3ccc(F)c(F)c23)c1	1200	>6667	1	> 20000	1	50	> 20000	3	>20000	ID50 [10]: 1000 nM; Selectivity index [11]: >1000; Selectivity index [12]: >154; EC50 [13]: 23 nM; EC50 [14]: 130 nM; Selectivity index [15]: >870; ID50 [16]: 1.7 nM; CC50 [17]: > 20000 nM; EC50 [18]: 84 nM; EC50 [19]: 20 nM; ID50 [20]: 2050 nM; ID50 [21]: 90 nM; CC50 [22]: > 20000 nM; Selectivity index [23]: >238
Cc1ccnc2c1NC(=O)c1cccnc1N2C1CC1 [NEVIRAPINE]	> 20000	–	–	–	50	14000	–	–	–	ID50 [10]: 7000 nM; Selectivity index [11]: >222; EC50 [14]: > 20000 nM; ID50 [16]: 400 nM; EC50 [18]: > 20000 nM; EC50 [19]: 90 nM; ID50 [20]: > 20000 nM; ID50 [21]: 9000 nM; CC50 [22]: > 20000 nM
NC(=O)c1[nH]c2cc(F)c(F)cc2c1S(=O)(=O)c1ccccc1	> 20000	>1000	16	> 20000	16	8200	> 20000	20	>1250	–
Cc1cc(C)cc(S(=O)(=O)c2c(C(N)=O)[nH]c3cc(Cl)c(Cl)cc23)c1	> 20000	>1333	10	> 20000	10	1000	> 20000	15	>2000	–
Cc1cc(C)cc(S(=O)(=O)c2c(C(N)=O)[nH]c3c(Cl)cc(Cl)cc23)c1	> 20000	>1667	21	> 20000	21	4200	> 20000	12	>952	–
NC(=O)c1[nH]c2cc(Cl)c(Cl)cc2c1S(=O)(=O)c1ccccc1	> 20000	>200	80	> 20000	80	1700	> 20000	100	>250	–
NC(=O)c1[nH]c2ccc(F)c(F)c2c1S(=O)(=O)c1ccccc1	18000	>2000	8	> 20000	8	600	> 20000	10	>2500	–
Cc1cc(C)cc(S(=O)(=O)c2c(C(N)=O)[nH]c3cc(F)c(Cl)cc23)c1	> 20000	>2000	12	> 20000	12	50	> 20000	10	>1667	–
Cc1cc(C)cc(S(=O)(=O)c2c(C(N)=O)[nH]c3ccc(Cl)c(F)c23)c1	300	>25000	0.5	> 20000	0.5	4	> 20000	0.8	>40000	ID50 [10]: 6 nM; Selectivity index [11]: >2500; Selectivity index [12]: >2000; EC50 [13]: 10 nM; EC50 [14]: 10 nM; Selectivity index [15]: >2000; ID50 [16]: 3 nM; CC50 [17]: > 20000 nM; EC50 [18]: 12 nM; EC50 [19]: 8 nM; ID50 [20]: 29 nM; ID50 [21]: 2 nM; CC50 [22]: > 20000 nM; Selectivity index [23]: >1667
Cc1cc(C)cc(S(=O)(=O)c2c(C(N)=O)[nH]c3cc(F)c(F)cc23)c1	> 20000	>667	20	> 20000	20	400	> 20000	30	>1000	–
Cc1cc(C)cc(S(=O)(=O)c2c(C(N)=O)[nH]c3ccc(F)c(Cl)c23)c1	> 20000	>2222	8	> 20000	8	2200	> 20000	9	>2500	–
Cc1cc(C)cc(S(=O)(=O)c2c(C(N)=O)[nH]c3cc(Cl)c(F)cc23)c1	12000	>400	50	> 20000	50	700	18000	50	360	–
O=C1Nc2ccc(Cl)cc2[C@@](C#CC2CC2)(C(F)(F)F)O1 [EFAVIRENZ]	200	–	–	–	–	10	–	–	–	EC50 [14]: > 20000 nM; EC50 [18]: > 20000 nM; EC50 [19]: 7 nM; CC50 [22]: > 20000 nM
